From patent US20260258084A1, “New Peptides as Selective IL-23 Receptor Antagonists” (Sanofi, priority 2022, published 2026)
Converted amounts (≈) assume the structure as drawn. Like-named read-outs stand apart in the source and are kept apart here. Starred links: 1 amine or outer side, 2 acyl side, 3 side chain; linkers in the order of their positions; H or OH if unused. Positions of bridges follow the written chain, without caps; N, C: chain ends. Non-standard residues stand in square brackets, D forms with d. Residues, ends and D or L forms follow the SMILES beside them. Groups on a side chain read outwards from the residue. *: point of attachment. Trp(7-Me) = Cc1cccc2c(C[C@H](N)C(=O)O)c[nH]c12; C18 diacid = O=C(O)CCCCCCCCCCCCCCCCC(=O)*; αMeLys(Me2) = CN(C)CCCC[C@](C)(N)C(=O)O; γGlu = O=C(O)[C@H](CCC(=O)[*:2])N[*:1]; 2Nal = N[C@@H](Cc1ccc2ccccc2c1)C(=O)O; 3Pal = N[C@@H](Cc1cccnc1)C(=O)O; Lys(Me) = CNCCCC[C@H](N)C(=O)O; Suc = O=C(CCC(=O)[*:2])[*:1]; AEEA = NCCOCCOCC(=O)O; Me2NCH2CH2 = CN(C)CC*; Aib = CC(C)(N)C(=O)O; Sar = CNCC(=O)O

Experiments:
[1] = biological target: T1, human interleukin-23 receptor (recombinant human IL-23R-Fc chimera) (Homo sapiens, UniProt Q5VWK5); experiment: Human ELISA IL23/IL23R (assay for specific human IL23R antagonists); format: binding; conditions: Table 10; read-out: Human ELISA IL23/IL23R IC50
T1 construct: Fc (IgG Fc fusion)
Procedure, shortened: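 Competition format: peptide dilutions compete for IL23R-Fc chimera (0.1 μg/ml final, 60 min, room temperature) binding to immobilized human IL23 coated at […] overnight at 4 °C. Read-out is fluorogenic HRP signal from goat anti-hu-IgG1 detecting captured receptor.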

Pepsin = tested on: T2, Pepsin; experiment: Protease stability in simulated gastric fluid (Pepsin-SGF, FaSSGF); format: in vitro ADME; conditions: simulated gastric fluid with pepsin (Pepsin-SGF), 60 min, 1 μM peptide, 37° C., read-out: FaSSGF 60 (min), remaining percent of peptide
T2 construct: purchased Merck Millipore
Method: (§1) Studies were carried out in simulated intestinal fluid (SIF) and simulated gastric fluid (SGF) to evaluate gastric stability of the peptide compounds disclosed herein.
For clarification the term “Pepsin-SGF” refers to a solution of simulated gastric fluid containing pepsin whereas “SGF media” refers to a solution of simulated gastric fluid without pepsin. Pepsin-SGF was prepared by dissolving 320 mg Pepsin (Merck Millipore) in 100 mL SGF media concentrate (ProSense).
(§2) Peptides were first dissolved at 1 mM stock concentration in 0.01 HCl (+/−10% of DMSO) and were than diluted further with water to a stock concentration of 20 μM. Final peptide concentration in the incubation was 1 μM.
(§3) To 76 μL of the Pepsin-SGF buffer, 4 μL of the 20 μM peptide stock solution was added and incubated at 37° C. At each timepoint (0, 60, 120 and 240 minutes) the reaction was quenched with addition of 80 μL Ethanol (0.1% HCOOH). The samples were centrifuged for 20 minutes and an aliquot of the supernatant 100 μL were transferred to a LoBind-MTP plate and analyzed by LCMS/MS. The peak area response was calculated at each time point for each test compound. As internal reference, the peak area response of the same test compound at TO was calculated. The percent remaining at each timepoint was calculated based on the peak area response ratio of the test compound at TO. Time 0 was set to 100%, and all later timepoints were calculated relative to time 0.

[2] = tested on: IL-23 induced STAT3 signaling in HEK-Blue™ IL-23 cells; experiment: IL-23 induced STAT3 signaling in HEK-Blue IL-23 cells (SEAP reporter); format: cell-based; conditions: human IL23 0.25 ng/ml, read-out: pSTAT3
Procedure, shortened: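 Secreted SEAP, read at OD 620-655 nm after 45 min QUANTI-Blue development, reports STAT3 activation. Beforehand, cells were exposed to peptide dilutions for 60 min at 37 °C and then to 0.25 ng/ml final human IL-23 overnight, at 10,000 cells/well.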

Pancreatin = experiment: Protease stability in simulated intestinal fluid (Pancreatin-SIF, FaSSIF); format: in vitro ADME; conditions: 1 μM peptide, 37° C.; for remaining at 1 h, 1 µM: 60 min, read-out: FaSSIF 60 (min), remaining percent of peptide; for remaining at 2 h, 1 µM: 120 min, read-out: FaSSIF 120 (min), remaining percent of peptide; for remaining at 4 h, 1 µM: 240 min, read-out: FaSSIF 240 (min), remaining percent of peptide
Method: as §1
Similarly, the term “Pancreatin-SIF” refers to a solution of simulated intestinal fluid containing pancreatin whereas “SIF-media” refers to a solution of simulated intestinal fluid without pancreatin.
Pancreatin-SIF was prepared by dissolving 1 mg Pancreatin (MP Biomedicals) in 10 mL SIF media concentrate (ProSense).
as §2
as §3, with “µM” for “μM”

[3] = Chemical stability assessment of peptides (relative purity loss); format: physicochemical; conditions: 24 hours at 37° C.
Method: Purity of a peptide batch was determined through UPLC/MS (Methods B-G) prior to chemical stability measurement. The target concentration was 1 mg/ml pure compound. Solutions from solid samples were prepared in the following buffer systems with a concentration of 1 mg/ml compound based on the previously determined % purity: • Solubility buffer system A) 50 mM HCl pH 1.2+Acetonitrile (1:1) • Solubility buffer system B) 50 mM phosphate buffer pH 6.5+Acetonitrile (1:1) • Solubility buffer system C) 50 mM phosphate buffer pH 7.4+Acetonitrile (1:1)
Prepared solutions were stored for 24 hours at 2° C. and 37° C. After this time course, the samples were centrifuged for 15 min at 2500 RCF to create a 1:5 dilution of the supernatant. Then 2 μl of the dilution were analysed with UHPLC-UV.
The chemical stability was rated through the relative loss of purity calculated by the equation:
[(purity after 0 hours at 37° C.)−(purity after 24 hours at 37° C.)]/(purity after 0 hours at 37° C.)]*100%
The purity is calculated as [(peak area peptide)/(total peak area)]*100%.

[4] = Solubility testing of peptides at different pH; format: physicochemical; conditions: target concentration 1 mg/ml, 2 hours agitation
Method: Prior to the solubility measurement of a synthesized peptide batch, its purity was determined through UPLC/MS (methods B-G).
For solubility testing the target concentration was 1 mg pure compound/ml. Therefore, solutions from solid samples were prepared in a buffer system at a concentration of 1 mg/mL compound. The solid samples were obtained by drying down aliquots of a dimethyl sulfoxide stock solution using a Thermo Speedvac vacuum centrifuge. The dry down time was 3 hours. • Solubility buffer system A) 50 mM HCl pH 1.2 • Solubility buffer system B) 50 mM phosphate buffer pH 6.5 • Solubility buffer system C) 50 mM phosphate buffer pH 7.4 • Solubility buffer system D) 50 mM phosphate buffer pH 9.0
UPLC-UV (Method A) was performed after 2 hours of gentle agitation from the filtered (0.45 μm filter plates) solutions, which was obtained by 10 mins of centrifugation forced filtration at 1500 RCF (relative centrifugal acceleration).
The solubility was determined by the comparison of the UV peak area of 2 μL-injections of a buffered sample diluted 1:5 with a standard curve of a dimethyl sulfoxide reference sample of the diluted in dimethyl sulfoxide with known concentration. The different extinction coefficients were taken into account for the calculation.

| Structure (SMILES) | IC50 [1] | remaining at 1 h, 1 µM (Pepsin) | IC50 [2] | remaining at 1 h, 1 µM (Pancreatin) | remaining at 2 h, 1 µM (Pancreatin) | remaining at 4 h, 1 µM (Pancreatin) | Chemical stability (relative purity loss) Buffer pH 1.2 ([3]; 50 mM HCl pH 1.2 + acetonitrile (1:1)) | Chemical stability (relative purity loss) Buffer pH 6.5 ([3]; 50 mM phosphate buffer pH 6.5 + acetonitrile (1:1)) | Chemical stability (relative purity loss) Buffer pH 7.4 ([3]; 50 mM phosphate buffer pH 7.4 + acetonitrile (1:1)) | solubility at 2 h ([4]; 50 mM HCl buffer, 50 mM HCl pH 1.2, read-out: Solubility Buffer pH 1.2) | solubility at 2 h ([4]; 50 mM phosphate buffer pH 6.5, read-out: Solubility Buffer pH 6.5) | solubility at 2 h ([4]; 50 mM phosphate buffer pH 7.4, read-out: Solubility Buffer pH 7.4) | solubility at 2 h ([4]; 50 mM phosphate buffer pH 9.0, read-out: Solubility Buffer pH 9.0) |
| --- | --- | --- | --- | --- | --- | --- | --- | --- | --- | --- | --- | --- | --- |
| CC(=O)NCCCC[C@@H]1NC(=O)[C@H](Cc2c[nH]c3c(C)cccc23)NC(=O)[C@H]([C@@H](C)O)NC(=O)[C@H](CC(N)=O)NC(=O)[C@@H]2CSSC[C@H](NC1=O)C(=O)N[C@@H](Cc1ccc(OCCN(C)C)cc1)C(=O)N[C@@H](Cc1ccc3ccccc3c1)C(=O)N[C@@](C)(CCCCN(C)C)C(=O)N[C@H](C(=O)N[C@@H](CC(N)=O)C(=O)N[C@@H](Cc1cccnc1)C(=O)N(C)CC(N)=O)CCCCN(C)C(=O)CCC(=O)N2 [compound 156] (CNT[Trp(7-Me)]K(Ac)CY(Me2NCH2CH2)[2Nal][αMeLys(Me2)][Lys(Me)]N[3Pal][Sar]-NH2; disulfide 1-6; linker N-10 via Suc) | 0.61 nM | 100% | 0.08 nM | 99% | 99% | 97% | – | – | – | – | – | – | – |
| COc1ccc(C[C@@H]2NC(=O)[C@@H]3CSSC[C@H](NC(=O)[C@@H](NC(C)=O)CCCCNC(=O)C[C@@H](C(=O)N[C@@H](CC(N)=O)C(=O)N[C@@H](CC(N)=O)C(N)=O)NC(=O)C(C)(C)NC(=O)[C@H](Cc4ccc5ccccc5c4)NC2=O)C(=O)N[C@@H](CC(N)=O)C(=O)N[C@@H]([C@@H](C)O)C(=O)N[C@@H](Cc2c[nH]c4ccccc24)C(=O)N[C@@H](CCC(N)=O)C(=O)N3)cc1 [compound 7] (Ac-KCNTWQCY(Me)[2Nal][Aib]DNN-NH2; lactam 1-11; disulfide 2-7) | – | 0% | 25 nM | 84% | 68% | 47% | 28.9% | 1.3% | 6.0% | 200 µg/mL (≈ 117 µM) | 160 µg/mL (≈ 93.8 µM) | 160 µg/mL (≈ 93.8 µM) | 150 µg/mL (≈ 87.9 µM) |
| Cc1cccc2c(C[C@@H]3NC(=O)[C@H]([C@@H](C)O)NC(=O)[C@H](CC(N)=O)NC(=O)[C@@H]4CSSC[C@H](NC(=O)[C@H](CCC(N)=O)NC3=O)C(=O)N[C@@H](Cc3ccc(OCCN(C)C)cc3)C(=O)N[C@@H](Cc3ccc5ccccc5c3)C(=O)NC(C)(C)C(=O)N[C@H](C(=O)N[C@@H](CC(N)=O)C(=O)N[C@@H](Cc3cccnc3)C(=O)N[C@@H](CCCCNC(=O)COCCOCCNC(=O)COCCOCCNC(=O)CC[C@H](NC(=O)CCCCCCCCCCCCCCCCC(=O)O)C(=O)O)C(N)=O)CCCCNC(=O)CCC(=O)N4)c[nH]c12 [compound 71] (CNT[Trp(7-Me)]QCY(Me2NCH2CH2)[2Nal][Aib]KN[3Pal]K([AEEA-AEEA-γGlu-C18 diacid])-NH2; disulfide 1-6; linker N-10 via Suc) | 0.31 nM | 76% | 2.35 nM | – | – | – | – | – | – | – | – | – | – |
